The record followed here is article PMC6478789, “A chemical toolbox for the study of bromodomains and epigenetic signaling” (Nature Communications, 2019).

Common to all, as to type: binding
Assay [1] has as its target T1, STK10 (Homo sapiens, UniProt O94804).
T1 construct: Recombinant protein domains (bromodomain or kinases) at a concentration of 2 μM
The assay is described as follows: Temperature shift assay (protein kinases). Conditions: 10 μM probe; average of three measurements. As for the experimental part:
(§1) Temperature shift assays have been described by Fedorov et al.[46]. Recombinant protein domains (bromodomain or kinases) at a concentration of 2 μM in 10 mM HEPES, pH 7.5, and 500 mM NaCl were mixed with 10 μM of chemical probes. Temperature-dependent protein unfolding profiles were measured using a Real-Time PCR Mx3005p machine (Stratagene).

Assay [2] has as its target T2, STK3 (Homo sapiens, UniProt Q13188).
T2 construct: Recombinant protein domains (bromodomain or kinases) at a concentration of 2 μM
T2 sequence (Q13188 27-278 limits assumed): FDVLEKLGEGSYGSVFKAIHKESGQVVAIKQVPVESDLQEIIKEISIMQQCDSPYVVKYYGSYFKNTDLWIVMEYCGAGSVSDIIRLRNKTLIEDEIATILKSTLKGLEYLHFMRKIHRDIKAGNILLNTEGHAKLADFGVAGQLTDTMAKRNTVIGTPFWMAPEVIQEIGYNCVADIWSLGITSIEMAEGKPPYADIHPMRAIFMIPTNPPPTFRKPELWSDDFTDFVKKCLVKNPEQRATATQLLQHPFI
The assay is described as follows: Temperature shift assay (protein kinases). Conditions: 10 μM probe; average of three measurements. As for the experimental part: as §1

For assay [3], the target named is T3, DYRK1A (Homo sapiens, UniProt Q13627).
T3 construct: Recombinant protein domains (bromodomain or kinases) at a concentration of 2 μM
The experiment in a line: Temperature shift assay (protein kinases). Conditions: 10 μM probe; average of three measurements. As for the experimental part: as §1

Assay [4] deals with T4, AAK1 (Homo sapiens, UniProt Q2M2I8).
T4 construct: Recombinant protein domains (bromodomain or kinases) at a concentration of 2 μM
T4 sequence (Q2M2I8 46-315 limits assumed, species assumed): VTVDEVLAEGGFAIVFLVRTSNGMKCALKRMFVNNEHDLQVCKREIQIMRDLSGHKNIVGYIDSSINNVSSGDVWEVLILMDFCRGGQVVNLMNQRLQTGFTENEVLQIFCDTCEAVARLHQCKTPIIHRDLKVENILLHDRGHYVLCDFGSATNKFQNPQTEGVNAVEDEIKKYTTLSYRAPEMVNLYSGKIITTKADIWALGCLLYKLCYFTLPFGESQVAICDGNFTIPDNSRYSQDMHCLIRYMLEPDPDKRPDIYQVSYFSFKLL
The experiment in a line: Temperature shift assay (protein kinases). Conditions: 10 μM probe; average of three measurements. As for the experimental part: as §1

The test system of assay [5] is RPS6KA1. The experiment in a line: Temperature shift assay (protein kinases). Particulars: 10 μM probe; average of three measurements. The procedure:
as §1

The target in assay [6] is T5, PAK4 (Homo sapiens, UniProt O96013).
T5 construct: Recombinant protein domains (bromodomain or kinases) at a concentration of 2 μM
T5 sequence (O96013 321-572 limits assumed, species assumed): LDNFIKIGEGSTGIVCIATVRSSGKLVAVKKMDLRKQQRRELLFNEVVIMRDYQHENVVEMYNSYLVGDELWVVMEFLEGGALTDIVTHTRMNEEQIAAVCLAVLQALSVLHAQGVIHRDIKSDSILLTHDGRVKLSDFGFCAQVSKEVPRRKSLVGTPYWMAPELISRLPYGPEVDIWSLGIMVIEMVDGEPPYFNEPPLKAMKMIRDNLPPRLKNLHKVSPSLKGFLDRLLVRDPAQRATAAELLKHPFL
The assay is described as follows: Temperature shift assay (protein kinases). Conditions: 10 μM probe; average of three measurements. As for the experimental part: as §1

Assay [7] deals with T6, DAPK3 (Homo sapiens, UniProt O43293).
T6 construct: Recombinant protein domains (bromodomain or kinases) at a concentration of 2 μM
T6 sequence (O43293 13-275 limits assumed, species assumed): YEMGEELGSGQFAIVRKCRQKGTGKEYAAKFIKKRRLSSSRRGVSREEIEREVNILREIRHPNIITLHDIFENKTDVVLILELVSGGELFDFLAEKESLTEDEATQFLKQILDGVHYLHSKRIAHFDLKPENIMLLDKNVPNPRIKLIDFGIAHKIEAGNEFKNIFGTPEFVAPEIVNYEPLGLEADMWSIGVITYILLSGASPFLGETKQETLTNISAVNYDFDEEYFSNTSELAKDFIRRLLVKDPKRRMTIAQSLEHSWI
The assay is described as follows: Temperature shift assay (protein kinases). Particulars: 10 μM probe; average of three measurements. As for the experimental part: as §1

In assay [8] the target is T7, TTK (Homo sapiens, UniProt P33981).
T7 construct: Recombinant protein domains (bromodomain or kinases) at a concentration of 2 μM
T7 sequence (P33981 525-791 limits assumed): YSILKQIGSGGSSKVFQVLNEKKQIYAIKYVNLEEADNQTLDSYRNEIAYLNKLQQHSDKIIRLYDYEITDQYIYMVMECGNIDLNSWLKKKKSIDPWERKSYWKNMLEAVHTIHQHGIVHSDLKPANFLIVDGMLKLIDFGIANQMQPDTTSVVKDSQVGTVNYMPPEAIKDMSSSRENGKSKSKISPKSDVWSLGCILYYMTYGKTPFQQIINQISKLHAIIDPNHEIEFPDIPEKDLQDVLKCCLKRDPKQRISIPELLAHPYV
The experiment in a line: Temperature shift assay (protein kinases). Particulars: 10 μM probe; average of three measurements. As for the experimental part:
as §1

The target of assay [9] is T8, BRAF (Homo sapiens, UniProt P15056).
T8 construct: Recombinant protein domains (bromodomain or kinases) at a concentration of 2 μM
T8 sequence (P15056 457-717 limits assumed, species assumed): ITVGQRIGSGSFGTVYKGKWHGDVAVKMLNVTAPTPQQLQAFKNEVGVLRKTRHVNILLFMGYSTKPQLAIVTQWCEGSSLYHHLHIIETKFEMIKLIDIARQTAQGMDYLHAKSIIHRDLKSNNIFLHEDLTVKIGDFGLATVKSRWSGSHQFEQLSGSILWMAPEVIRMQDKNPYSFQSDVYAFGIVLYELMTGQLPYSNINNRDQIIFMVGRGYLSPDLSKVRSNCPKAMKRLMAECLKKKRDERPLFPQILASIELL
The experiment in a line: Temperature shift assay (protein kinases). Conditions: 10 μM probe; average of three measurements. As for the experimental part: as §1

In assay [10] the target is T9, MERTK (Homo sapiens, UniProt Q12866).
T9 construct: Recombinant protein domains (bromodomain or kinases) at a concentration of 2 μM
T9 sequence (Q12866 587-858 limits assumed): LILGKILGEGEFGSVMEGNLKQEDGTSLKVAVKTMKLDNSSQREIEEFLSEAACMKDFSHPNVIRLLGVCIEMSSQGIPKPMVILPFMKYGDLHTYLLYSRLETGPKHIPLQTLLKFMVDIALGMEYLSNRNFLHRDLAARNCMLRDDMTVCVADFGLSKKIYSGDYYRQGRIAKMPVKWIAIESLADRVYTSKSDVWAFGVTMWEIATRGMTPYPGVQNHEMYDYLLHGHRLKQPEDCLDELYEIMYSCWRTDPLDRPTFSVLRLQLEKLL
The experiment in a line: Temperature shift assay (protein kinases). Conditions: 10 μM probe; average of three measurements. As for the experimental part: as §1

Assay [11] has as its target T10, BMX (Homo sapiens, UniProt P51813).
T10 construct: Recombinant protein domains (bromodomain or kinases) at a concentration of 2 μM
The experiment in a line: Temperature shift assay (protein kinases). Particulars: 10 μM probe; average of three measurements. As for the experimental part:
as §1

The target of assay [12] is T11, FES (Homo sapiens, UniProt P07332).
T11 construct: Recombinant protein domains (bromodomain or kinases) at a concentration of 2 μM
T11 sequence (P07332 561-822 limits assumed, species assumed): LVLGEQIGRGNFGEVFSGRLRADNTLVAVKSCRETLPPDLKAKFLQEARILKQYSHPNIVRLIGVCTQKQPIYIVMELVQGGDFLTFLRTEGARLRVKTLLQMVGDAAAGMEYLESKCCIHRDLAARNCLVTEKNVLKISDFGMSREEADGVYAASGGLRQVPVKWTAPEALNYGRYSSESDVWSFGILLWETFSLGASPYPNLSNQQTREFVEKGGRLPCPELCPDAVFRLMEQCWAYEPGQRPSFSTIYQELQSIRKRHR
The experiment in a line: Temperature shift assay (protein kinases). Conditions: 10 μM probe; average of three measurements. The procedure: as §1

Assay [13] addresses BRPF1 (Homo sapiens, UniProt P55201). The assay is described as follows: Temperature shift assay (non-BRD reader domains). Particulars: 10µM compound.

Each structure is given as a SMILES string.

Chain of BRPF1 (P55201 1085-1168 limits assumed, species assumed): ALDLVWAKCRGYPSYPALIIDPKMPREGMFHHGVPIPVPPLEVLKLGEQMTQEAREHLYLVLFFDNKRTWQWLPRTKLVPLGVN
T1 sequence (O94804 36-294 limits assumed, species assumed): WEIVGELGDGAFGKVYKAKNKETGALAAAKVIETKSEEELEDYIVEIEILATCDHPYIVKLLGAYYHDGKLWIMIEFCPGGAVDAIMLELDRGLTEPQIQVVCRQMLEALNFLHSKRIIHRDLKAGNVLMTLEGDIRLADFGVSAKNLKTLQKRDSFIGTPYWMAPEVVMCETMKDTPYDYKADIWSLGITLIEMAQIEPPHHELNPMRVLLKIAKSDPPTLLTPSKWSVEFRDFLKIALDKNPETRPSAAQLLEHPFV
T10 sequence (P51813 417-675 limits assumed, species assumed): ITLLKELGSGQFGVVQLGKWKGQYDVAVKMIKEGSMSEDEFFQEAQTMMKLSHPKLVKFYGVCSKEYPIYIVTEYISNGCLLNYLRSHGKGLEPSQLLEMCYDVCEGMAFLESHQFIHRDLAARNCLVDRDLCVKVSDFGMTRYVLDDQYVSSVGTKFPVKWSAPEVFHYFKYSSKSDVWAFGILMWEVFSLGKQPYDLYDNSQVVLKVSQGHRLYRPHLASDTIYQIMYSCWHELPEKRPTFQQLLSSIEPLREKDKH

For `Cc1nnc2c3ccccc3c(N[C@@H](C)[C@H](c3ccccc3)N(C)C)nn12` [L-Moses], the Temperature shift was -0.4 Kelvin in [1]; 0.0 Kelvin in assay [2]; 0.2 Kelvin in [3]; -1.6 Kelvin in assay [4]; 0.2 Kelvin in assay [5]; -0.3 Kelvin in [6]. In addition, the Temperature shift in assay [7] was 0.2 Kelvin; in [8], -0.5 Kelvin; in assay [9], -0.1 Kelvin; in assay [10], 0.0 Kelvin; in assay [11], -0.1 Kelvin; in [12] it was -0.2 Kelvin. Besides, in assay [13], the “Tm (C) 10µM, temperature shift” value is listed as -2.7 Kelvin.

Turning to `Cc1cc2c(cc1N1C(=O)c3cccc4c(CCCO)ccc(c34)C1=O)n(C)c(=O)n2C` [BAY-299], the Temperature shift is listed as -0.2 Kelvin in assay [1]; 0.1 Kelvin in assay [2]; -0.5 Kelvin in assay [3]; -0.4 Kelvin in assay [4]; 0.1 Kelvin in assay [5]; -0.1 Kelvin in assay [6]. The Temperature shift in assay [7] is -0.2 Kelvin; in [8] it was -0.1 Kelvin; in assay [9] it was 0.1 Kelvin; in assay [10], -0.2 Kelvin; in assay [11], 0.3 Kelvin; in [12] it was 0.0 Kelvin. For the same compound, the “Tm (C) 10µM, temperature shift” value in assay [13] is given as -2.5 Kelvin.

As for `CO[C@H]1CNC[C@@H](OCC2CCC(F)(F)CC2)[C@@H]1Nc1ncc(-c2cncc(C)c2)c2cc(C)c(=O)[nH]c12` [GSK8814], in [13], the “Tm (C) 10µM, temperature shift” value was -0.2 Kelvin.

With `COc1cc(Cl)c(C(=O)N[C@@H](CN[C@H]2CC[C@@H](N)CC2)Cc2ccc(C#N)cc2)cc1-c1ccc(CN[C@H](C)c2ccc(C)cc2)o1` [BAY-850], the “Tm (C) 10µM, temperature shift” value in assay [13] was -2.2 Kelvin.

With `CN1C[C@H](Nc2cnn(C)c(=O)c2Br)C[C@H](c2ccccc2)C1` [GSK4027], the “Tm (C) 10µM, temperature shift” value in assay [13] is -0.8 Kelvin.
